Experimental data from US20030157715A1, “Modulation of chromosome function by chromatin remodeling agents” (priority 2000, published 2003).

Tests used:
[1] = tested on: GAGAA repeats (satellite V / bw^D repeats); experiment: DNase I footprinting on GAGAA repeats (GAF31 and Brown I probes); type: binding, Drosophila melanogaster
Source text: FIG. 3 Binding specificity of P31 and GAGA factor Panel A: DNAse I footprinting experiment with P31 and affinity cleavage with P31E are shown on GAF31 and the Brown I probes. The GAF31 and Brown I probes contains a (AAGAG)2 motif and GAGA factor (GAF) binding site from the Ubx promoter (Biggin et al., 1988). […] The Brown I oligo (a tandem repeat) includes an (AAGAG)s binding site and a degenerate P31 binding site (AACAC)2 as indicated. P31 concentrations used (nM) are indicated. Lanes labeled P31E (top) are affinity cleavage reactions with 1 nM of P31E on either probe. Binding orientations of P31E on these probes are indicated by arrowheads on the brackets pointing towards the N-terminus of the molecule. The letter G refers the G nucleotide cleavage reaction. Panel B: DNAse I footprinting experiment with purified GAGA factor (GAF) on the GAF31 probe. Note that GAF binds both the (AAGAG)2 motif and the binding site from the Ubx promoter.
A polyamide that targets the abundant satellite V composed of GAGAA repeats (Lohe et al., 1993) was synthesized. Designing molecules that would bind to this repeat motif represented a challenge since with current knowledge, targeting of sequences containing 5′-GNG-3′ or 5′-GA-3′ with drugs composed of pyrrole and imidazole is difficult. However, successful targeting to sequences containing 5′-GTG-3′ was previously achieved using an Im-β-Im motif where β-alanine replaces the function of pyrrole (Turner et al., 1998). Since β-alanine, like pyrroles, is degenerate for […] and T^•A base pairs, we designed a compound based on these observations, to recognize a sequence composed of two tandem GAGAA repeats by systematic placement of -alanine at the N-terminal neighbor of imidazole. The binding affinity and specificity of this compound, termed P31 (=Im-β-Im-Py-β-Im-β-Im-β-Dp), were evaluated by DNAse I footprinting. For this purpose, two different probes were examined, both containing GAGAA repeats. […] The apparent binding constant of P31 for this sequence was estimated at 0.25 nM. […]

[2] = tested on: homozygous bw^D/bw^D flies; experiment: P31 fed to developing homozygous brown-dominant flies; type: in vivo; conditions: 40 homozygous bw^D males
Ubx^1/+ flies = experiment: P31 fed to developing Ubx^1/+ flies; type: in vivo, Drosophila melanogaster
Source text: P31 enhances haltere-to-wing transformation in heterozygous bw^D/bw; Ubx^1/+ flies: The GAGA factor is know to bind to the promoter of Ubx and to stimulate its transcription in vitro (Biggin and Tjian, 1988) The Trl locus also genetically interacts with Ubx, since Trl^13C dominantly enhances the segmental transformation observed in Ubx heterozygotes. […] We asked, does P31 also chemically mimic the genetic interaction of Ubx and Trl^13C? To address this issue, we fed P31 to two genotypes, +/+; Ubx/+ and bw^D/bw^D; Ubx^1/+. The latter genotype was obtained by crossing bw^D/bw^D; st/st females and bw^D/bw^D Ubx^1/Tm3, sb males.
The lethality of the progenies was calculated by counting the dead bodies and the total empty pupal shells. The A6 to A5 transformation was detected by bristles that form on abdominal segment A6 on males. All male adult flies obtained (˜50) were scored. Sex combs and halteres were individually inspected and photographed under the microscope (Axiophot, Zeiss) after dissecting at least 30 individuals and incubating them into 30 μl of 0.6 g/ml gum arabic; 4 g/ml chlorohydrate; 35% glycerol under a 24×24 mm coverslip as described (Ashburner, 1989). Since raising double heterozygous flies (Ubx^1/+; bw^D/+) led to lethality, we morphologically dissected eight late stage pupae after carefully removing the pupal envelope.

[3] = tested on: variegating white reporter transgene flies (C3/2L, BL2/Y); experiment: P9 fed to flies with variegating white reporter transgene; type: in vivo, Drosophila melanogaster; conditions: transgene at the basis of chromosome 2L; data not shown
Source text: Although we favor the possibility that P9 and MATH20 reduce the spreading of heterochromatin toward w^m4 through long-range effects, we cannot completely rule out the possibility that a local binding site near the white gene (a local SAR) is involved. We attempted to address this issue by studying the effect of P9 on two different variegating miniwhite reporter genes called C3/2L and BL2/Y (Lu et al., 1996; Wallrath and Elgin, 1995). […] Nevertheless, we consider a local-acting mode less likely; the enormous target size of satellite III, 11 Mb versus 0.5 kb for a typical SAR, favors a long-range spreading model.

With `CN(C)CCCNC(=O)CCNC(=O)c1nc(NC(=O)CCNC(=O)c2nc(NC(=O)CCNC(=O)c3cc(NC(=O)c4nc(NC(=O)CCNC(=O)c5nccn5C)cn4C)cn3C)cn2C)cn1C` [Compound P31, Im-β-Im-Py-β-Im-β-Im-β-Dp] as the compound, how does the “concentration at which bw^D repeats are protected” value ([1]; 2 consecutive bw^D repeats (GAGAAGAGAA)) read?
The value was 0.1 nM.

What about the Kd ([1]; DNase I footprinting, read-out: apparent binding constant for two GAGAA repeats) of the same compound?
Its Kd is 0.25 nM.

And the “affinity for target binding site (in words)” value ([1]; two GAGAA repeats)?
Its value is “subnanomolar affinity”.

And the “mean number of bristles on A6” value [2]?
Its value is 6.

And the “A6 to A5” value (Ubx^1/+ flies; fly stock Ubx^1/+)?
Its value is 0%.

And the Lethality (Ubx^1/+ flies; fly stock Ubx^1/+)?
The Lethality was 10%.

What about the “Sex comb (mean)” value (Ubx^1/+ flies; fly stock Ubx^1/+) of the same compound?
The value was 10.3.

What about the “Sex comb, range of teeth” value (Ubx^1/+ flies; fly stock Ubx^1/+) of the same compound?
The value was 8-12.

And the “alteration of phenotype (in words)” value (Ubx^1/+ flies; progeny of Ubx^1/+ flies)?
The value was “no altered phenotype”.

`CN(C)CCCNC(=O)CCNC(=O)c1cc(NC(=O)c2cc(NC(=O)c3cc(NC(=O)CCNC(=O)c4cc(NC(=O)c5cc(NC(=O)c6cccn6C)cn5C)cn4C)cn3C)cn2C)cn1C` [Compound P9, PyPyPy-β-PyPyPy-β-Dp] was tested. Which “suppression of PEV of a variegating white reporter transgene” value [3] did it give?
The value was “did not suppress PEV”.
